Experimental data published in PMC11873635 (Acta Pharmaceutica Sinica. B, 2024).

Key:
human SMS2 = target: T1, human SMS2 (Homo sapiens, UniProt Q8NHU3); test: purified SMS enzyme inhibitory assay in vitro; format: biochemical; conditions: for inhibition at 1 µM: read-out: SMS2 Inhibition @ 1 μmol/L (%); for LLE: pIC50, SMS2 – ClogP; for Selectivity ratio: IC50, SMS1/IC50, SMS2
T1 sequence (Q8NHU3 1-365): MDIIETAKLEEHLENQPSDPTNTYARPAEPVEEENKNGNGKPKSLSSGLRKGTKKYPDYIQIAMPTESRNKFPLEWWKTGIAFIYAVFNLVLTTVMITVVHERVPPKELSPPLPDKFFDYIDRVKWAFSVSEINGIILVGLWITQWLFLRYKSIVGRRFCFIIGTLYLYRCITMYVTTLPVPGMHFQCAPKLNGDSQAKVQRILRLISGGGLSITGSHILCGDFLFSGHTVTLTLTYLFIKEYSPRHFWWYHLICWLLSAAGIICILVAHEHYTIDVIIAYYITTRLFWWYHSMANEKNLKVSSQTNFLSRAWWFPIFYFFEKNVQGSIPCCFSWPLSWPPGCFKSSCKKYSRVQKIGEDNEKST

human SMS1 = target: T2, human SMS1 (Homo sapiens, UniProt Q86VZ5); test: purified SMS enzyme inhibitory assay in vitro; format: biochemical; conditions: for inhibition at 100 µM: read-out: SMS1 Inhibition @ 100 μmol/L (%)
T2 sequence (Q86VZ5 1-413): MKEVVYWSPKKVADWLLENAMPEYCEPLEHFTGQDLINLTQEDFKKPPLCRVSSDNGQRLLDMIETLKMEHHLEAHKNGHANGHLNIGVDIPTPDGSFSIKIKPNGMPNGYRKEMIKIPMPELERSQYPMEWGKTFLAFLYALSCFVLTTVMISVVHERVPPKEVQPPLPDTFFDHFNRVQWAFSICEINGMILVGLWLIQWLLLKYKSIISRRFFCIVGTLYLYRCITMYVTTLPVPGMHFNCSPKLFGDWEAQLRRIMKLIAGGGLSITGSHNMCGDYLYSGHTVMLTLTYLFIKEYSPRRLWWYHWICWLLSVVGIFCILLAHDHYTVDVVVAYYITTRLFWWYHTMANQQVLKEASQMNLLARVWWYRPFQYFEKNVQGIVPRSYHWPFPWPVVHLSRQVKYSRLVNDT

SMILES | inhibition at 1 µM (human SMS2) | inhibition at 100 µM (human SMS1) | IC50 (human SMS2) | LLE (human SMS2) | Selectivity ratio (human SMS2) | IC50 (human SMS1)
O=C(Nc1cnccc1Cl)c1sccc1OCc1ccccc1 [7b] | 7% | -39% |  |  |  | 
O=C(Nc1cccnc1)c1sc([N+](=O)[O-])cc1OCc1ccccc1 [5e] |  | -4% |  |  |  | 
O=C(Nc1cccnc1)c1ncccc1OCc1ccccc1 [5b] |  | -18% |  |  |  | 
Cc1ncccc1NC(=O)c1sccc1OCc1ccccc1 [7e] | 3% | -20% |  |  |  | 
CN(C(=O)c1sccc1OCc1ccccc1)c1cccnc1 [compound 6] | 28% | 20% |  |  |  | 
Cc1ccc(NC(=O)c2sccc2OCc2ccccc2)cn1 [7h] | -3% | 22% |  |  |  | 
Cc1nc(OCc2ccccc2)c(C(=O)Nc2cccnc2)s1 [5d] |  | 10% |  |  |  | 
O=C(Nc1cccnn1)c1sccc1OCc1ccccc1 [7i] | 25% | 22% |  |  |  | 
O=C(Nc1cccnc1)c1scc(Br)c1OCc1ccccc1 [5f] | 42% | 14% |  |  |  | 
O=C(Nc1cccnc1)c1sccc1OS(=O)(=O)c1ccccc1 [compound 10] | -3% |  |  |  |  | 
O=C(Nc1ccc(F)nc1)c1sccc1OCc1ccccc1 [7d] | 12% | 57% |  |  |  | 
Cc1cc(OCc2ccccc2)c(C(=O)Nc2cccnc2)s1 [5c] | 34% | -14% |  |  |  | 
O=C(Nc1cncc(F)c1)c1sccc1OCc1ccccc1 [7c] | 56% | 52% |  |  |  | 
O=C(Nc1cccnc1)c1sccc1OCc1ccccc1 [5a] | 66% | 20% | 400 nM | 3.33 | 547 | 219000 nM
O=C(Nc1ccccc1)c1sccc1OCc1ccccc1 [7k] | 3% |  |  |  |  | 
O=C(Nc1cccnc1F)c1sccc1OCc1ccccc1 [7a] | 41% | 53% | 1790 nM | 2.31 |  | 
Cc1ccncc1NC(=O)c1sccc1OCc1ccccc1 [7f] | -4% | -17% |  |  |  | 
Cc1cncc(NC(=O)c2sccc2OCc2ccccc2)c1 [7g] | 12% | 28% |  |  |  | 
O=C(Nc1ccnnc1)c1sccc1OCc1ccccc1 [7j] | -16% | 5% |  |  |  | 

Further lines, results first:

inhibition at 1 µM (human SMS2) | inhibition at 100 µM (human SMS1) | IC50 (human SMS2) | LLE (human SMS2) | Selectivity ratio (human SMS2) | IC50 (human SMS1) | SMILES
26% | 52% | 38800 nM | 0.75 |  |  | O=C(Nc1cccnc1)c1sccc1OCc1ccc(Cl)cc1 [14c]
93% | 81% | 34 nM | 0.64 | 540 | 18000 nM | CCCCCCCCCCCCOc1ccccc1COc1ccsc1C(=O)Nc1cccnc1 [14p]
64% | 56% | 307 nM | 2.90 |  |  | O=C(Nc1cccnc1)c1sccc1OCc1ccccc1Cl [14a]
79% | 5% |  |  |  |  | O=C(Nc1cccnc1)c1sccc1OCc1c2ccccc2cc2ccccc12 [9c]
98% | 92% | 15 nM | 1.83 | 649 | 10000 nM | CCCCCCCCOc1c(Cl)cccc1COc1ccsc1C(=O)Nc1cccnc1 [14q]
91% | 85% | 111 nM | 1.01 | 70 | 8000 nM | CCCCCCCCOc1ccc(Cl)cc1COc1ccsc1C(=O)Nc1cccnc1 [14r]
91% | 86% | 35 nM | 1.58 | 360 | 13000 nM | CCCCCCCCCOc1ccccc1COc1ccsc1C(=O)Nc1cccnc1 [14m]
91% | 90% | 29 nM | 2.37 | 459 | 13000 nM | CCCCCCCOc1ccccc1COc1ccsc1C(=O)Nc1cccnc1 [14k]
83% | 56% | 78 nM | 3.67 | 1004 | 78000 nM | CCOc1ccccc1COc1ccsc1C(=O)Nc1cccnc1 [14f]
88% | 93% | 67 nM | 2.52 | 85 | 6000 nM | CCCCCCOc1ccccc1COc1ccsc1C(=O)Nc1cccnc1 [14j]
92% | 87% | 31 nM | 1.39 | 409 | 13000 nM | CCCCCCCCCCOc1ccccc1COc1ccsc1C(=O)Nc1cccnc1 [14n]
-11% | 67% |  |  |  |  | CCCCCCCCOc1ccsc1C(=O)Nc1cccnc1 [9e]
86% | 88% | 74 nM | 2.62 | 142 | 10000 nM | CCCCCOc1ccccc1COc1ccsc1C(=O)Nc1cccnc1 [14i]
82% | 33% | 70 nM | 4.04 | 2295 | 160000 nM | COc1ccccc1COc1ccsc1C(=O)Nc1cccnc1 [14e]
79% | 53% |  |  |  | 102000 nM | O=C(Nc1cccnc1)c1sccc1OCc1cc(F)ccc1Cl [14d]
86% | 39% |  |  |  |  | O=C(Nc1cccnc1)c1sccc1OCc1cccc2ccccc12 [9a]
68% | 60% | 199 nM | 3.02 |  |  | O=C(Nc1cccnc1)c1sccc1OCc1cccc(Cl)c1 [14b]
45% | 21% |  |  |  |  | O=C(Nc1cccnc1)c1sccc1OCc1cccc2cccnc12 [9d]
78% | 74% | 103 nM | 3.18 | 477 | 49000 nM | CCCOc1ccccc1COc1ccsc1C(=O)Nc1cccnc1 [14g]
95% | 90% | 29 nM | 0.98 | 445 | 13000 nM | CCCCCCCCCCCOc1ccccc1COc1ccsc1C(=O)Nc1cccnc1 [14o]
85% | 81% | 65 nM | 3.14 | 313 | 20000 nM | CCCCOc1ccccc1COc1ccsc1C(=O)Nc1cccnc1 [14h]
36% | 42% |  |  |  |  | O=C(Nc1cccnc1)c1sccc1OCc1ccc2ccccc2c1 [9b]
